Like-named read-outs stand apart in the source and are kept apart here.
Tests used:
5637 cells [1] = test: MTT cytotoxicity assay, 5637 bladder cancer cells; assay type: cell-based, human
Description: (§1) For the hypoxia experiments, cells were cultured at 1% O2 (5% CO2/94% N2; 37 °C) using a hypoxia station (Whitley H35 hypoxystation; Don Whitley, Bingley, UK). All media used in these experiments were incubated under hypoxic conditions before being added to the cells.
(§2) Then, DMSO was added to dissolve the formazan crystals.

SCaBER cells [2] = test: MTT cytotoxicity assay, SCaBER bladder cancer cells; assay type: cell-based, human; settings: hypoxia (1% oxygen)
Description: as §1, §2

SCaBER cells [3] = test: as above; assay type: cell-based, human; settings: normoxia
[4] = test system: human peripheral blood mononuclear cell (PBMC); parameters: method as in ref 38 (Deters et al.); settings: ref 38 (Deters et al.); cited from earlier work
[5] = parameters: method as in ref 41 (Wang et al.); settings: ref 41 (Wang et al.), cited from earlier work
T24 cell line = test system: T24 cell line; parameters: method as in ref 53 (Park et al.); settings: T24 cells, 12.5 µM; ref 53 (Park et al.); cited from earlier work
MRC-5 cells [6] = test: MTT cytotoxicity assay, MRC-5 normal lung fibroblasts
Description: (§3) Human urinary grade II carcinoma cell line (5637) and human urinary squamous cell carcinoma (SCaBER) were purchased from ATCC (Manassas, VA, USA). The MRC-5 cell line (normal human lung fibroblasts) was purchased from the European Collection of Authenticated Cell Cultures (ECACC) distributed by Sigma-Aldrich. The 5637 cells were grown in RPMI, SCaBER cells were cultured in EMEM, and MRC-5 in DMEM. All media were supplemented with 10% (v/v) FBS, 2 mM L-glutamine, 100 U/mL penicillin, and 10 mg/mL streptomycin in a humidified atmosphere of 5% CO2 at 37 °C.
(§4) 5637 and SCaBER cells were seeded at 15 × 10^3 cells/well, while MRC-5 was at a density of 20 × 10^3 cells/well and incubated overnight. In the case of the hypoxia experiments, cells were transferred to a hypoxia chamber and incubated for 24 h. […] The cytotoxic activity of tested compounds was measured after 24 h and 48 h using the MTT assay. After incubation lasting 24 h and 48 h, the cells were washed twice with PBS, and 170 µL of MTT (final concentration of 0.59 mg/mL in cell culture medium) was added to each well. Cells were incubated for 1.5 h under standard cell culture conditions. Then, DMSO was added to dissolve the formazan crystals. The absorbance was measured at a wavelength of 570 nm with a plate reader (Biotek Instruments, Elx-800, Winooski, VT, USA). Cell viability was calculated as a percentage of the control. All experiments were repeated at least two times (two independent experiments performed in hexaplicate). The IC50 values were determined using GraphPad 8.0 software (GraphPad Software, Inc., La Jolla, CA, USA).

5637 cells [7] = test: Cell cycle distribution, propidium iodide flow cytometry; assay type: cell-based, human; settings: for G2/M cell population: 5637, 6 µM, 24 h
Description: The 5637 cells (0.4 × 10^6 cells/well) were seeded in 6-well plates and incubated overnight under standard cell culture conditions or in a hypoxia workstation. Then, the tested compound was added at a concentration of 4 µM, 5 µM, and 6 µM (for hypoxic conditions), and 6 µM, 8 µM, and 10 µM (for normoxic conditions), and incubated for 24 h. […] After incubation, cells were washed twice with PBS, trypsinized, and washed again with PBS. Cells were fixed with 70% ethanol at 4 °C. After fixation, the cells were washed twice with PBS and treated with RNAse (100 µg/mL) and PI (50 µg/mL) for 30 min at 37 °C in the dark. The samples were analyzed using BD FACSLyric™ (Becton Dickinson, Franklin Lakes, NJ, USA). Finally, cell cycle distribution was analyzed using flow cytometry. The percentages of cells in the G1, S, and G2/M phases were calculated using FlowJo software version 10.8.1 (Becton Dickinson, Ashland, OR, USA).

5637 cells [8] = test: Proteome Profiler Human Cell Stress Array; assay type: cell-based; settings: 5637, hypoxic conditions, 4 µM, 18 h, compared to control cells
Description: The 5637 cells were seeded in a Petri dish (Ø 35 mm) at a density of 0.4 × 10^6 cells/dish and incubated overnight. Cells were treated with compound 5 at a concentration of 4 µM (hypoxia) and 8 µM (normoxia) for 18 h. […] After incubation, cells were lysed in a lysis buffer containing pepstatin A, leupeptin, and aprotinin (each at a concentration of 10 µg/mL). Total protein was determined using a Pierce BCA protein assay Kit and stored at −80 °C until future use. A total of 300 µg of protein was then incubated with a human Proteome Profiler Human Cell Stress Array (Bio-Techne, Minneapolis, MN, USA) according to the manufacturer’s instructions. The membranes were visualized using the I-Bright Imaging System (Thermofisher Scientific, Waltham, MA, USA). The spot densitometric analysis was performed using Image Studio Lite (version 5.2) software (LI-COR Biosciences, Lincoln, NE, USA).

[9] = MTT cytotoxicity assay, MRC-5 normal lung fibroblasts; settings: human, MRC-5 normal lung fibroblasts
Description: as §3, §4

MRC-5 cells [10] = settings: 10 µM
Description: as §3, §4

[11] = 5637, hypoxia (1% oxygen), 24 h incubation, MTT, read-out: IC50
[12] = 5637, hypoxia (1% oxygen), 48 h incubation, MTT, read-out: IC50
[13] = 5637, normoxia, 24 h incubation, MTT, read-out: IC50
[14] = 5637, normoxia, 48 h incubation, MTT, read-out: IC50
[15] = MRC-5, normoxia, 24 h incubation, MTT
[16] = MRC-5, normoxia, 48 h incubation, MTT
[17] = Homo sapiens, 24 h, 5637, hypoxia (1% oxygen), 24 h incubation, MTT, read-out: IC50
[18] = Homo sapiens, 24 h, 5637, normoxia, 24 h incubation, MTT, read-out: IC50
[19] = Homo sapiens, 48 h, 5637, hypoxia (1% oxygen), 48 h incubation, MTT, read-out: IC50
[20] = Homo sapiens, 48 h, 5637, normoxia, 48 h incubation, MTT, read-out: IC50
[21] = Homo sapiens, 24 h, 24 h incubation
[22] = Homo sapiens, 48 h, 48 h incubation
[23] = 5637, 24 h, hypoxic conditions, vs control

Compound | IC50 (5637 cells [1]; [11]) | IC50 (5637 cells [1]; [12]) | IC50 (5637 cells [1]; [13]) | IC50 (5637 cells [1]; [14]) | IC50 (SCaBER cells [2]; 24 h incubation) | IC50 (SCaBER cells [2]; 48 h incubation) | IC50 (SCaBER cells [3]; 24 h incubation) | IC50 (SCaBER cells [3]; 48 h incubation) | IC50 (MRC-5 cells [6]; [15]) | IC50 (MRC-5 cells [6]; [16]) | further results
(1E,4Z,6E)-5-hydroxy-1,7-bis (3-methoxy-4-hydroxyphenyl)-hepta-1,4,6-trien-3-one [Curcumin (11), reference compound] | 12.1 ± 0.16 µM | 13.3 ± 0.54 µM | 12.7 ± 3.03 µM | 12.9 ± 2.35 µM | 11.6 ± 0.83 µM | 11.3 ± 0.19 µM | 13.1 ± 0.68 µM | 12.6 ± 0.62 µM | 70.4 ± 12.5 µM | 45.3 ± 3.18 µM | IC50 [4]: 2.8 µM; curcumin decomposed ([5]; cell culture medium in the presence of FCS, within 1 h): less than 20%; curcumin decomposed ([5]; cell culture medium in the presence of FCS, within 8 h): < 50%; curcumin decomposed ([5]; serum-free medium, within 30 min): about 90%; cell population in G2/M (T24 cell line): 64%
(1E,3Z,6E)-1,7-bis(4-methoxy-3-{2-[2-(2-methoxyethoxy)ethoxy]ethoxy}phenyl)-5-oxohepta-1,3,6-trien-3-yl difluoroborinate [Compound 6] | 2.37 ± 0.19 µM | 2.66 ± 0.07 µM | 2.6 ± 0.99 µM | 2.63 ± 0.77 µM | 5.85 ± 1.98 µM | 7.28 ± 1.81 µM | 4.11 ± 1.4 µM | 4.35 ± 1.97 µM | > 10 µM | 9.34 ± 0.76 µM | –
COCCOCCOCCOc1ccc(/C=C/C(=O)/C=C(O)/C=C/c2ccc(OCCOCCOCCOC)c(OC)c2)cc1OC [Compound 5, (1E,4Z,6E)-5-hydroxy-1,7-bis(3-methoxy-4-{2-[2-(2-methoxyethoxy)ethoxy]ethoxy}phenyl)-hepta-1,4,6-trien-3-one] | – | – | – | – | – | – | – | – | – | – | IC50 (5637 cells [1]; [17]): 6.43 ± 0.26 µM; IC50 (5637 cells [1]; [18]): 8.4 ± 0.21 µM; IC50 (5637 cells [1]; Homo sapiens, 24 h, 5637, panel A (normoxia, 5-10 µM), 24 h, read-out: IC50 (narrow concentration range)): 7.89 ± 0.47 µM; IC50 (5637 cells [1]; Homo sapiens, 24 h, 5637, panel B (hypoxia 1% oxygen, 3-8 µM), 24 h, read-out: IC50 (narrow concentration range)): 5.29 ± 0.02 µM; IC50 (5637 cells [1]; [19]): 5.02 ± 1.06 µM; IC50 (5637 cells [1]; [20]): 7.91 ± 0.46 µM; IC50 (5637 cells [1]; Homo sapiens, 48 h, 5637, panel A (normoxia, 5-10 µM), 48 h, read-out: IC50 (narrow concentration range)): 7.82 ± 1 µM; IC50 (5637 cells [1]; Homo sapiens, 48 h, 5637, panel B (hypoxia 1% oxygen, 3-8 µM), 48 h, read-out: IC50 (narrow concentration range)): 5.29 ± 0.16 µM; IC50 (SCaBER cells [2]; [21]): 7.27 ± 0.2 µM; IC50 (SCaBER cells [2]; [22]): 7.58 ± 0.91 µM; G2/M cell population (5637 cells [7]; hypoxia): 38%; G2/M cell population (5637 cells [7]; normoxia): 24%; number of cells in the G0/G1 phase (5637 cells [7]; [23]): significantly decreased; number of cells in the S phase (5637 cells [7]; [23]): slightly increased; expression of HIF-1α, HIF-2α, ADAMTS-1, phospho-JNK, p21, and phospho-HSP27 (5637 cells [8]): increased; IC50 (SCaBER cells [3]; [21]): 8.53 ± 0.16 µM; IC50 (SCaBER cells [3]; [22]): 7.97 ± 0.4 µM; viability at 10 µM [9]: ~100%; IC50 (MRC-5 cells [6]; Homo sapiens, MRC5, 24 h): > 10 µM; IC50 (MRC-5 cells [6]; Homo sapiens, MRC5, 48 h): > 10 µM
COCCOCCOCCOc1cc(/C=C/C(=O)/C=C(O)/C=C/c2ccc(OC)c(OCCOCCOCCOC)c2)ccc1OC [Compound 7, (1E,4Z,6E)-5-hydroxy-1,7-bis(4-methoxy-3-{2-[2-(2-methoxyethoxy)ethoxy]ethoxy}phenyl)-hepta-1,4,6-trien-3-one] | – | – | – | – | – | – | – | – | – | – | viability at 10 µM (5637 cells [1]; Homo sapiens, 5637, 10 µM, 24 h incubation, preliminary screen, read-out: cell viability): > 60%
(1E,3Z,6E)-1,7-bis(3-methoxy-4-{2-[2-(2-methoxyethoxy)ethoxy]ethoxy}phenyl)-5-oxohepta-1,3,6-trien-3-yl difluoroborinate [Compound 4] | 2.58 ± 0.11 µM | 2.96 ± 0.23 µM | 3.31 ± 0.34 µM | 3.27 ± 0.45 µM | 2.42 ± 0.23 µM | 2.86 ± 0.62 µM | 4.18 ± 1.3 µM | 4.57 ± 2.07 µM | > 10 µM | > 10 µM | cell viability (MRC-5 cells [10]): 66%
(1E,3Z,6E)-1,7-bis(4-methoxy-3-hydroxyphenyl)-5-oxohepta-1,3,6-trien-3-yl difluoroborinate [Compound 12] | 2.32 ± 0.29 µM | 2.64 ± 0.54 µM | 2.48 ± 0.55 µM | 2.4 ± 0.45 µM | 3.26 ± 1.05 µM | 4.25 ± 1.94 µM | 2.28 ± 0.13 µM | 2.21 ± 0.17 µM | 9.63 ± 2.61 µM | 5.8 ± 0.77 µM | –
(1E,3Z,6E)-1,7-bis(3-methoxy-4-hydroxyphenyl)-5-oxohepta-1,3,6-trien-3-yl difluoroborinate [Compound 10] | 1.96 ± 0.47 µM | 2.12 ± 0.33 µM | 2.25 ± 0.08 µM | 2.17 ± 0.24 µM | 2.35 ± 0.22 µM | 2.6 ± 0.03 µM | 2.59 ± 0.16 µM | 2.71 ± 0.34 µM | > 10 µM | 7.84 ± 0.15 µM | –
COc1ccc(/C=C/C(=O)/C=C(O)/C=C/c2ccc(OC)c(O)c2)cc1O [Isocurcumin (13), (1E,4Z,6E)-5-hydroxy-1,7-bis(4-methoxy-3-hydroxyphenyl)-hepta-1,4,6-trien-3-one] | – | – | – | – | – | – | – | – | – | – | IC50 (5637 cells [1]; [17]): 13.1 ± 2.89 µM; IC50 (5637 cells [1]; [18]): 10.8 ± 3.46 µM; IC50 (5637 cells [1]; [19]): 10.1 ± 3.12 µM; IC50 (5637 cells [1]; [20]): 6.71 ± 1.7 µM; IC50 (SCaBER cells [2]; [21]): 14.2 ± 0.23 µM; IC50 (SCaBER cells [2]; [22]): 11.94 ± 0.09 µM; IC50 (SCaBER cells [3]; [21]): 14.7 ± 0.88 µM; IC50 (SCaBER cells [3]; [22]): 14.3 ± 0.41 µM; IC50 [4]: 2.8 µM; IC50 (MRC-5 cells [6]; Homo sapiens, MRC5, 24 h): > 20 µM; IC50 (MRC-5 cells [6]; Homo sapiens, MRC5, 48 h): > 20 µM
